Assay results taken from paper PMC12144822 (Parasites & Vectors, 2025).

How the values were obtained:
Assay type in all cases: cell-based
[1] = biological target: Clu-GABA α1β2γ2 (Canis lupus familiaris, UniProt A0A2H4NNI8+A0A8I3RPG5+E2RSQ0); assay: Two-electrode voltage-clamp concentration-activation by the natural agonist, receptor expressed in Xenopus oocytes
Source text: (§1) Complementary DNA (cDNA) encoding for the human GABAA proteins α1 (NM_001127645.2), α2 (NM_001377146.1), α3 (KJ620007.1), α4 (NM_000809.4), α5 (NM_000810.4), α6 (NM_000811.3), β2 (XM_054352312.1), β3 (M82919.1), γ2 (NM_000816.3) and δ (NM_000815.5) were ordered from Genewiz (www.genewiz.com; Leipzig, Germany); for each gene, GenBank accession numbers are provided in parentheses. When necessary, silent mutations were introduced to break NheI or XhoI internal restriction sites. The corresponding open reading frames (ORF) were cloned into the pT7-TS transcription vector (introducing X. laevis β-globin untranslated cDNA to the 5’ and 3’ ends of the gene), following a procedure described in detail in a previous publication. The same process was used to obtain cDNA encoding canine GABAA proteins α4 (XM_025435560.1), α6 (XM_022417729.1) and δ (XM_005620414.2). Gene α2 (XM_025435664.1), α3 (XM_549343.5), α5 (XM_545805.6) and β3 (XM_025437408.1) were obtained by PCR; GenBank reference accession numbers are provided in parentheses. RNA extraction, cDNA synthesis and PCR amplification were performed as described previously. Total RNA was extracted from a piece of dog brain (Beagle breed; Canis lupus familiaris) from which 1 µg of total RNA (DNase-treated) was reverse-transcribed to cDNA using a (dT)30 primer and SuperScript III Reverse Transcriptase (Invitrogen, Thermo Fisher Scientific, Waltham, MA, USA). Gene-specific primers (Additional file 1: Table S1) were designed using Primer 3 software (http://frodo.wi.mit.edu/). […] The cycling conditions were: 98 °C for 30 s; then 38 cycles of 98 °C for 10 s, 58 °C for 30 s and 72 °C for 90 s; followed by 72 °C for 5 min. The dog subunits α1 (XM_546261.5), β2 (XM_014113040.1) and γ2 (XM_546259.5) had been previously amplified and described in a study by Rufener et al..
(§2) Defoliculated X. laevis oocytes ordered from Ecocyte Bioscience (Dortmund, Germany) were microinjected with 15–25 nl of cRNA solution (5–50 ng/μl) per oocyte using an automated injector (Roboinject; Multi Channel Systems MCS GmbH, Reutlingen, Germany) and then incubated at 18 °C. All recordings were made 1–5 days post-cRNA injection and were performed at 18 ± 4 °C. Cells were superfused with OR2 medium (NaCl 88 mM, KCl 2.5 mM, HEPES 5 mM, CaCl2•2H2O 1.8 mM, MgCl2•7H2O 1.0 mM, pH 7.4). To ensure that γ2 subunits were integrated into the heteropentamers, we injected fivefold more γ2 than the other subunit cRNAs. Diazepam is a positive allosteric modulator of GABAR only if γ2 subunits are present. Therefore, we used this method to confirm the presence of human and dog GABAA receptor containing the γ2 subunit.
(§3) Voltage-clamp measurements were performed as described by Rufener et al.. Oocytes were impaled with two electrodes filled with 3 M KCl, and their membrane potentials were maintained at − 80 mV throughout the experiment. […] Recordings were performed using an automated process equipped with standard two-electrode voltage-clamp configuration (HiClamp system; Multi Channel Systems MCS GmbH). Data were filtered at 10 Hz, captured at 100 Hz and analyzed using proprietary data acquisition and analysis software in MATLAB (Mathworks Inc., Natick, MA, USA). Additional analyses were performed using Excel (Microsoft, Redmond, WA, USA). […] Graphing the maximum inward currents against the log of agonist concentration produces typical concentration-activation and concentration-inhibition curves, which can be accurately described using individual Hill equations.

[2] = biological target: Clu-GABA α2β2γ2 (Canis lupus familiaris, UniProt A0A8I3RPG5+A0A8I3S1N5+E2RSQ0); assay: as above
Source text: as §1, §2, §3

[3] = biological target: Clu-GABA α2β3γ2 (Canis lupus familiaris, UniProt A0A8I3NUI4+A0A8I3S1N5+E2RSQ0); assay: as above
Source text: as §1, §2, §3

[4] = biological target: Clu-GABA α3β2γ2 (Canis lupus familiaris, UniProt A0A8I3PRS3+A0A8I3RPG5+E2RSQ0); assay: as above
Source text: as §1, §2, §3

[5] = biological target: Clu-GABA α5β2γ2 (Canis lupus familiaris, UniProt A0A8I3PC22+A0A8I3RPG5+E2RSQ0); assay: as above
Source text: as §1, §2, §3

[6] = system: Hsa-GABAR; assay: Voltage-clamp concentration-activation, summary over the six human receptors; conditions: concentration-activation curves
Procedure: as §2
Voltage-clamp measurements were performed as described by Rufener et al.. Oocytes were impaled with two electrodes filled with 3 M KCl, and their membrane potentials were maintained at − 80 mV throughout the experiment. […] Recordings were performed using an automated process equipped with standard two-electrode voltage-clamp configuration (HiClamp system; Multi Channel Systems MCS GmbH). Data were filtered at 10 Hz, captured at 100 Hz and analyzed using proprietary data acquisition and analysis software in MATLAB (Mathworks Inc., Natick, MA, USA). […]

[7] = biological target: Hsa-GABA α2β3γ2 (Homo sapiens, UniProt P18507+P28472+P47869); assay: Two-electrode voltage-clamp concentration-activation by the natural agonist, receptor expressed in Xenopus oocytes; set-up: The corresponding open reading frames (ORF) were cloned into the pT7-TS transcription vector; expressed in transfected cells; host or cells: Xenopus laevis oocytes, cRNA injection; conditions: concentration-activation curve
Source text: as §1, §2, §3

[8] = agonist, 10 s applications, Xenopus oocytes, −80 mV

Chain of Clu-GABA α1β2γ2 (A0A2H4NNI8 28-456): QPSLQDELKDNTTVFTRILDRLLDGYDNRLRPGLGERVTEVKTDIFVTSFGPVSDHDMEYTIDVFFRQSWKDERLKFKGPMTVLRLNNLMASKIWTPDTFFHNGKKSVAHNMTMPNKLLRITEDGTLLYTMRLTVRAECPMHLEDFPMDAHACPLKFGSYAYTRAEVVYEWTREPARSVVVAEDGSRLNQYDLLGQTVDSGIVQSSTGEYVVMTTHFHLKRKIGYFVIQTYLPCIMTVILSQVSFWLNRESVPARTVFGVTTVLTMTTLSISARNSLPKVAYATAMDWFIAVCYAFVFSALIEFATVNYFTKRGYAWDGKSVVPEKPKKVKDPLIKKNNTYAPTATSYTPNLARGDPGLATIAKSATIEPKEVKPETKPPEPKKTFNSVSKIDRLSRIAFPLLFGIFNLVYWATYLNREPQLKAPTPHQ
Chain of Clu-GABA α1β2γ2 (A0A8I3RPG5 25-473): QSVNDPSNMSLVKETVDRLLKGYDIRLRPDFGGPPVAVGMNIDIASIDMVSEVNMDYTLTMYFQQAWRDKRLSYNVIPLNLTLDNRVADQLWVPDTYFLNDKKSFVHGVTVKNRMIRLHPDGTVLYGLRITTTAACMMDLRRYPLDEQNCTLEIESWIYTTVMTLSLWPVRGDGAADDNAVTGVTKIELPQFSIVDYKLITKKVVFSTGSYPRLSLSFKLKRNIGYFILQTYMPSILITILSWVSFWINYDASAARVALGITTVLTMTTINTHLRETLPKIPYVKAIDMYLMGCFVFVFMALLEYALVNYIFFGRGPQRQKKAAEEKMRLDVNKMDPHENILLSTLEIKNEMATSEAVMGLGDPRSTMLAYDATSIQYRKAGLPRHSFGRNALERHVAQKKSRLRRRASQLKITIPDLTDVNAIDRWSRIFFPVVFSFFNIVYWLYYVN
Chain of Clu-GABA α1β2γ2 (E2RSQ0 40-467): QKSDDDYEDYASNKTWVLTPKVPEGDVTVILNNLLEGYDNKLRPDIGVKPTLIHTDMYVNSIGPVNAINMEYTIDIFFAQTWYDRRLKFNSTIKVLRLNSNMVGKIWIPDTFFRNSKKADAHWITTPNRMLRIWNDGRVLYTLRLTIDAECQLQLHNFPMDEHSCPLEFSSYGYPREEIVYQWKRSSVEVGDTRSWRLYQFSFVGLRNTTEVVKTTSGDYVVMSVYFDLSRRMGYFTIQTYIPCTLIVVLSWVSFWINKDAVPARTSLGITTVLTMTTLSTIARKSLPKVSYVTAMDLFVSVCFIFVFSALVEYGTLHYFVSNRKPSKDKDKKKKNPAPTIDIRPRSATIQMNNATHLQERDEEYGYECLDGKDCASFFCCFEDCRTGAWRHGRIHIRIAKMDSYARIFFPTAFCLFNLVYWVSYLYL
Chain of Clu-GABA α5β2γ2 (A0A8I3PC22 32-462): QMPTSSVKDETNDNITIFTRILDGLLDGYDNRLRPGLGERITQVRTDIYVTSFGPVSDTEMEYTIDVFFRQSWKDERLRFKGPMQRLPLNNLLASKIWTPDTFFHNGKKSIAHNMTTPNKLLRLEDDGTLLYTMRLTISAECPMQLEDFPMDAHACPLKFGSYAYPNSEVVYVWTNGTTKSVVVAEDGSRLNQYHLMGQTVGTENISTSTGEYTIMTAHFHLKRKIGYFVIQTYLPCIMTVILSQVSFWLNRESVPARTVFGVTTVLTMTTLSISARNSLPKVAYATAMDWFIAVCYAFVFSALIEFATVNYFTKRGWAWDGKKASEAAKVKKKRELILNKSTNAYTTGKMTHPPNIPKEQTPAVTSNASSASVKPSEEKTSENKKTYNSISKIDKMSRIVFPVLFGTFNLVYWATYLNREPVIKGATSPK
Chain of Clu-GABA α5β2γ2 (A0A8I3RPG5 25-473): as the sequence (A0A8I3RPG5 25-473) above
Chain of Clu-GABA α5β2γ2 (E2RSQ0 40-467): as the sequence (E2RSQ0 40-467) above
Chain of Clu-GABA α2β2γ2 (A0A8I3S1N5 29-451): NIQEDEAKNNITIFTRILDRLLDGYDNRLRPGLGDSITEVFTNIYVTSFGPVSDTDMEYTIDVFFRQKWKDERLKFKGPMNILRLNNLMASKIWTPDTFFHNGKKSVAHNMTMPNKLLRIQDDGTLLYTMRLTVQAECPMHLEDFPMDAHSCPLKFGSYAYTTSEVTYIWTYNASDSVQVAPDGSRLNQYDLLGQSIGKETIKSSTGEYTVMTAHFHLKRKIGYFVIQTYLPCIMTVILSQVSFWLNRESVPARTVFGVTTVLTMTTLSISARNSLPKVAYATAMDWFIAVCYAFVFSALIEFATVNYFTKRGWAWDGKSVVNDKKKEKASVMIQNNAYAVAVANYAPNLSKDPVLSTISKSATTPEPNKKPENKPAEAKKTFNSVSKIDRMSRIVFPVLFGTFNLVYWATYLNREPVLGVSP
Chain of Clu-GABA α2β2γ2 (A0A8I3RPG5 25-473): as the sequence (A0A8I3RPG5 25-473) above
Chain of Clu-GABA α2β2γ2 (E2RSQ0 40-467): as the sequence (E2RSQ0 40-467) above
Chain of Clu-GABA α2β3γ2 (A0A8I3S1N5 29-451): as the sequence (A0A8I3S1N5 29-451) above
Chain of Clu-GABA α2β3γ2 (A0A8I3NUI4 101-496): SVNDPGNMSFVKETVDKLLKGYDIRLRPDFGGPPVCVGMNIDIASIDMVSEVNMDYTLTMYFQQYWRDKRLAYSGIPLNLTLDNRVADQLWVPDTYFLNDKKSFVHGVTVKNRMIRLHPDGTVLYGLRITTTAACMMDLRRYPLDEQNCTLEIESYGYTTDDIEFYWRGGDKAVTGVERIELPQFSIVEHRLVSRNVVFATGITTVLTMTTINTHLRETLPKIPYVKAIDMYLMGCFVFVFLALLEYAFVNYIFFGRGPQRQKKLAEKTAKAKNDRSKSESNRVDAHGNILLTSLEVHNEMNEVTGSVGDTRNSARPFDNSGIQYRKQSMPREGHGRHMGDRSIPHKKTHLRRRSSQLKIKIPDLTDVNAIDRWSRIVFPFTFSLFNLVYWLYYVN
Chain of Clu-GABA α2β3γ2 (E2RSQ0 40-467): as the sequence (E2RSQ0 40-467) above
Chain of Clu-GABA α3β2γ2 (A0A8I3PRS3 29-259): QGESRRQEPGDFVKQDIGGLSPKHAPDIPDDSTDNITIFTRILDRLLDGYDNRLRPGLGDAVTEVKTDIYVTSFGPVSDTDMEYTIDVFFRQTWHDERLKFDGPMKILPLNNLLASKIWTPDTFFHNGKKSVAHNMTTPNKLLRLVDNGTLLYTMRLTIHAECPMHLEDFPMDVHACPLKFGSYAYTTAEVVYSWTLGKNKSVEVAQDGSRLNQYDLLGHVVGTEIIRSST
Chain of Clu-GABA α3β2γ2 (A0A8I3RPG5 25-473): as the sequence (A0A8I3RPG5 25-473) above
Chain of Clu-GABA α3β2γ2 (E2RSQ0 40-467): as the sequence (E2RSQ0 40-467) above
Chain of Hsa-GABA α2β3γ2 (P47869 29-451): as the sequence (A0A8I3S1N5 29-451) above
Chain of Hsa-GABA α2β3γ2 (P28472 26-473): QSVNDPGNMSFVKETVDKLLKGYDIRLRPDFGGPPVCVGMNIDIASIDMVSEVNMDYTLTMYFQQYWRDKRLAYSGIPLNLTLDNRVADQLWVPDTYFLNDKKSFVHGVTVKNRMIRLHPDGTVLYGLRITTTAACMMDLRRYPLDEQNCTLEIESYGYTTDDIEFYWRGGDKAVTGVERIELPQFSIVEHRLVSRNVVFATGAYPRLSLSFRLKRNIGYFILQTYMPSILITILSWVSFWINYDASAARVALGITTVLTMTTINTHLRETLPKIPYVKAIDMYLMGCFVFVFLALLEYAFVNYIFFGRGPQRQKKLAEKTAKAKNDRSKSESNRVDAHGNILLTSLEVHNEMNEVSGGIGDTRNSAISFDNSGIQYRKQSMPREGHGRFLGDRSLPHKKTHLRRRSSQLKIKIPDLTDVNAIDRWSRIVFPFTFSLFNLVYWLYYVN
Chain of Hsa-GABA α2β3γ2 (P18507 40-467 isoform P18507-1 limits assumed): as the sequence (E2RSQ0 40-467) above

NCCCC(=O)O [GABA, gamma-aminobutyric acid]
EC50 [1, 8]: 10 µM | nH (Hill coefficient) ([1]; concentration-activation curve): 1.0 | EC50 [2, 8]: 42 µM | nH (Hill coefficient) ([2]; concentration-activation curve): 1.3 | EC50 [3, 8]: 8.6 µM | nH (Hill coefficient) ([3]; concentration-activation curve): 1.6 | EC50 [4, 8]: 40.4 µM | nH (Hill coefficient) ([4]; concentration-activation curve): 0.8 | EC50 [5, 8]: 8.1 µM | nH (Hill coefficient) ([5]; concentration-activation curve): 1.1 | Hill coefficients over the six Hsa-GABAR [6]: higher than 1 | nH (Hill coefficient) [7]: 1.2
